The values that follow come from ChEMBL document CHEMBL6182832, “Design and synthesis of coumarin-based amphoteric antimicrobials with biofilm interference and immunoregulation effects” (RSC Med Chem, 2025).

Molecules are shown by their SMILES. Values after ≈ are worked out from the molar mass of the structure shown. Active and inactive are the calls of the source. The calls are words filed in the database; no cut-off is given here. Where only a bound is given, the exact number is not on record here.

The subject of data set [1] is Escherichia coli. The data set is described as follows: Antibacterial activity against clinically isolated Escherichia coli ATCC25922 assessed as inhibition of bacterial growth measured after 16 to 24 hrs by broth microdilution method. The class given is functional. The following applies: time 16-24 hrs, read-out: MIC100.
In data set [2] the test system is Escherichia coli. Description: Antibacterial activity against clinically isolated Escherichia coli DE17 assessed as inhibition of bacterial growth measured after 16 to 24 hrs by broth microdilution method. The data set is classed as functional. The following applies: time 16-24 hrs, read-out: MIC100. For orientation: Dilution methods test growth across graded concentrations, often in twofold steps.

For data set [3], the system named is Staphylococcus aureus. Description: Antibacterial activity against clinically isolated Staphylococcus aureus ATCC29213 assessed as inhibition of bacterial growth measured after 16 to 24 hrs by broth microdilution method. The data set is classed as functional. As to conditions: time 16-24 hrs, read-out: MIC100.
Data set [4] has as its system Staphylococcus aureus. Description: Antibacterial activity against clinically isolated methicillin-resistant Staphylococcus aureus assessed as inhibition of bacterial growth measured after 16 to 24 hrs by broth microdilution method. The class given is functional. The following applies: time 16-24 hrs, read-out: MIC100.
A further data set has as its system Bacillus subtilis. The data set is described as follows: Antibacterial activity against clinically isolated Bacillus subtilis ATCC6633 assessed as inhibition of bacterial growth measured after 16 to 24 hrs by broth microdilution method. As to conditions: time 16-24 hrs, read-out: MIC100. The data set is classed as functional.
In the next data set the test system is Bacillus cereus. The data set is described as follows: Antibacterial activity against clinically isolated Bacillus cereus CMCC63303 assessed as inhibition of bacterial growth measured after 16 to 24 hrs by broth microdilution method. The class given is functional. The following applies: time 16-24 hrs, read-out: MIC100.
Another data set concerns Listeria monocytogenes. The data set is described as follows: Antibacterial activity against clinically isolated Listeria monocytogenes CICC21662 assessed as inhibition of bacterial growth measured after 16 to 24 hrs by broth microdilution method. The class given is functional. As to conditions: time 16-24 hrs, read-out: MIC100.
The test system of another data set is Enterococcus faecalis. The data set is described as follows: Antibacterial activity against clinically isolated Enterococcus faecalis ATCC29212 assessed as inhibition of bacterial growth measured after 16 to 24 hrs by broth microdilution method. As to conditions: time 16-24 hrs, read-out: MIC100. The data set is classed as functional.
Data set [5] is described as follows: Hemolytic activity in rabbit erythrocytes assessed as hemolysis at >8 ug/ml. The class given is toxicity, cell-based, Oryctolagus cuniculus. The following applies: erythrocyte, dose > 8 µg/ml.
Data set [6] in a line: In vivo toxicity in KM mouse assessed as survival rate at 40 mg/kg, sc relative to control. The data set is classed as organism-based.
Data set [7] can be described thus: In vivo toxicity in KM mouse assessed as survival rate at 20 mg/kg, sc relative to control. The data set is classed as organism-based.
The nature of data set [8]: In vivo toxicity in KM mouse assessed as survival rate at 15 mg/kg, sc relative to control. The data set is classed as organism-based.
A short description of data set [9]: In vivo toxicity in KM mouse assessed as survival rate at 10 mg/kg, sc relative to control. The class given is organism-based.
Data set [10] can be described thus: In vivo toxicity in KM mouse assessed as survival rate at 5 mg/kg, sc relative to control. The data set is classed as organism-based.
Data set [11] is described as follows: In vivo toxicity in KM mouse assessed as redness and swelling skin at site of compound administration at 20 to 40 mg/kg, sc. As to conditions: dose 20-40 mg/kg. The data set is classed as organism-based.
Data set [12] is described as follows: In vivo toxicity in KM mouse assessed as platelet count (PLT) in blood collected from eyes of mouse at 15 mg/kg, sc. The class given is organism-based.
The nature of data set [13]: In vivo toxicity in KM mouse assessed as hemoglobin (HGB) in blood collected from eyes of mouse at 15 mg/kg, sc. The class given is organism-based.
Data set [14] in a line: In vivo toxicity in KM mouse assessed as red blood cells (RBC) in blood collected from eyes of mouse at 15 mg/kg, sc. The class given is organism-based.
Data set [15] in a line: In vivo toxicity in KM mouse assessed as mean corpuscular volume (MCV) in blood collected from eyes of mouse at 15 mg/kg, sc. The data set is classed as organism-based.
The nature of data set [16]: In vivo toxicity in KM mouse assessed as hematocrit (HCT) in blood collected from eyes of mouse at 15 mg/kg, sc. The data set is classed as organism-based.
Data set [17] can be described thus: In vivo toxicity in KM mouse assessed as white blood cells (WBC) in blood collected from eyes of mouse at 15 mg/kg, sc. The class given is organism-based.
Data set [18] is described as follows: In vivo toxicity in KM mouse assessed as urea (UREA) in blood collected from eyes of mouse at 15 mg/kg, sc. The data set is classed as organism-based.
Data set [19] can be described thus: In vivo toxicity in KM mouse assessed as albumin (ALB) in blood collected from eyes of mouse at 15 mg/kg, sc. The data set is classed as organism-based.
Data set [20] in a line: In vivo toxicity in KM mouse assessed as creatinine (CREA) in blood collected from eyes of mouse at 15 mg/kg, sc. The data set is classed as organism-based.
In data set [21] the test system is Staphylococcus aureus. The data set is described as follows: In vivo antibacterial activity against clinically isolated Staphylococcus aureus ATCC29213 infected KM mouse skin abscess model assessed as reduction in size of abscess in dorsal skin and intradermal tissue at 5 mg/kg, sc measured after 24 hrs by Hematoxylin and Eosin staining based analysis. The class given is functional, organism-based.

Data set [22] deals with Staphylococcus aureus. Description: In vivo antibacterial activity against clinically isolated Staphylococcus aureus ATCC29213 infected KM mouse skin abscess model assessed as aggregation of inflammatory cells into epidermis and dermis of skin at 5 mg/kg, sc measured after 24 hrs by Hematoxylin and Eosin staining based analysis. The data set is classed as functional, organism-based.

Data set [23] deals with Staphylococcus aureus. The data set is described as follows: In vivo antibacterial activity against clinically isolated Staphylococcus aureus ATCC29213 infected KM mouse skin abscess model assessed as decrease in bacterial survival in skin at 5 mg/kg, sc measured after 24 hrs by Hematoxylin and Eosin staining based analysis. The data set is classed as functional, organism-based.

The subject of data set [24] is Staphylococcus aureus. Description: In vivo antibacterial activity against clinically isolated Staphylococcus aureus ATCC29213 infected KM mouse skin abscess model assessed as decrease in bacterial load in skin at 5 mg/kg, sc measured after 24 hrs by Hematoxylin and Eosin staining based analysis. The data set is classed as functional, organism-based.
Another data set deals with RAW264.7. Description: Anti-inflammatory activity against mouse RAW264.7 cells assessed as inhibition LPS-stimulated NO production 0.5 to 4 ug/ml measured after 24 hrs by NO assay kit. The data set is classed as functional, cell-based. As to conditions: dose 0.5-4 µg/ml.
For data set [25], the system named is Staphylococcus aureus. Description: Anti-biofilm activity against clinically isolated Staphylococcus aureus ATCC29213 assessed inhibition of biofilm formation at 0.5 to 128 ug/ml measured after 12 to 16 hrs incubation by crystal violet staining based analysis. The data set is classed as functional, organism-based. The following applies: dose 0.5-128 µg/ml, time 12-16 hrs.

Data set [26] concerns Escherichia coli. The data set is described as follows: Anti-biofilm activity against clinically isolated Escherichia coli DE17 assessed inhibition of biofilm formation at 0.5 to 128 ug/ml measured after 12 to 16 hrs incubation by crystal violet staining based analysis. The data set is classed as functional, organism-based. The following applies: dose 0.5-128 µg/ml, time 12-16 hrs.

In data set [27] the test system is Staphylococcus aureus. The data set is described as follows: Anti-biofilm activity against clinically isolated Staphylococcus aureus ATCC29213 assessed inhibition of biofilm formation at 2 ug/ml measured after 12 to 16 hrs incubation by crystal violet staining based analysis. The class given is functional. The following applies: time 12-16 hrs.
Data set [28] has as its system Staphylococcus aureus. The data set is described as follows: Anti-biofilm activity against clinically isolated Staphylococcus aureus ATCC29213 assessed inhibition of biofilm formation at 4 ug/ml measured after 12 to 16 hrs incubation by crystal violet staining based analysis. The class given is functional. The following applies: time 12-16 hrs.
The subject of data set [29] is Escherichia coli. The data set is described as follows: Anti-biofilm activity against clinically isolated Escherichia coli DE17 assessed inhibition of biofilm formation at 8 ug/ml measured after 12 to 16 hrs incubation by crystal violet staining based analysis. The class given is functional. The following applies: time 12-16 hrs.
For data set [30], the system named is Escherichia coli. Description: Anti-biofilm activity against clinically isolated Escherichia coli DE17 assessed inhibition of biofilm formation at 16 ug/ml measured after 12 to 16 hrs incubation by crystal violet staining based analysis. The data set is classed as functional. The following applies: time 12-16 hrs.
Data set [31] deals with Staphylococcus aureus. Description: Biofilm eradication activity against Staphylococcus aureus ATCC29213 assessed biofilm scavenging at 2 ug/ml measured after 12 to 16 hrs incubation by crystal violet staining based analysis. The data set is classed as functional, organism-based. As to conditions: dose 2.0 µg/ml, time 12-16 hrs.
Data set [32] relates to Escherichia coli. The data set is described as follows: Biofilm eradication activity against Escherichia coli DE17 assessed biofilm scavenging at 8 ug/ml measured after 12 to 16 hrs incubation by crystal violet staining based analysis. As to conditions: dose 8.0 µg/ml, time 12-16 hrs. The class given is functional, organism-based.
Data set [33] concerns Staphylococcus aureus. The data set is described as follows: Antibacterial activity against clinically isolated Staphylococcus aureus ATCC29213 assessed as inhibition of bacterial growth at 2 times of MIC measured after 18 hrs by broth microdilution method. The data set is classed as functional.
For data set [34], the system named is Staphylococcus aureus. Description: Antibacterial activity against clinically isolated Staphylococcus aureus ATCC29213 assessed as inhibition of bacterial growth at 1/2 times of MIC measured after 24 consecutive passages by broth microdilution method. The data set is classed as functional, organism-based.
Data set [35] has as its system Staphylococcus aureus. The data set is described as follows: Resistance index, ratio of MIC100 for antibacterial activity against clinically isolated Staphylococcus aureus ATCC29213 assessed as inhibition of bacterial growth at 1/2 times of MIC measured after 24 consecutive passages to MIC100 for antibacterial activity against clinically isolated Staphylococcus aureus ATCC29213. The data set is classed as functional.

What is called inhibition is the drop in the measured response relative to a control, in per cent. Low readings indicate a weak effect, high ones a strong effect. `CCN(CC)CCCCCCCCCCCCOc1ccc2ccc(=O)oc2c1`: the MIC in the data set with Escherichia coli [1] is greater than 256 µg/mL; in the data set on Escherichia coli [2], greater than 256 µg/mL; with Staphylococcus aureus [3] it was 1 µg/mL (≈ 2.49 µM); in the data set with Staphylococcus aureus [4], 2 µg/mL (≈ 4.98 µM); in the data set with Bacillus subtilis, 1 µg/mL (≈ 2.49 µM); in the data set on Bacillus cereus, 4 µg/mL (≈ 9.96 µM). The MIC in the data set with Listeria monocytogenes is 2 µg/mL (≈ 4.98 µM); in the data set with Enterococcus faecalis, 4 µg/mL (≈ 9.96 µM). The Activity result is on record as “Toxic” in [5]; “Toxic” in data set [11]; “Non-toxic” in data set [12]; “Non-toxic” in data set [13]; “Non-toxic” in data set [14]; “Non-toxic” in data set [15]. The Activity result in data set [16] is “Non-toxic”; in data set [17], “Non-toxic”; in [18], “Non-toxic”; in [19], “Non-toxic”; in data set [20], “Non-toxic”; with Staphylococcus aureus [25], “Dose-dependent-effect”. In addition, the Activity entry in the data set with Escherichia coli [26] is “Dose-dependent-effect”. Besides, the survival in data set [6], in [7], in data set [8], in [9] and in data set [10] was 100% throughout. For the same compound, the result with Staphylococcus aureus [21], with Staphylococcus aureus [22], in the data set on Staphylococcus aureus [23], with Staphylococcus aureus [24], in the data set with RAW264.7 and with Staphylococcus aureus [31] was Active. The outcome in the data set with Escherichia coli [32] and with Staphylococcus aureus [34] was Active. Besides, the inhibition at 2 µg/mL in the data set on Staphylococcus aureus [27] is 100%. The same compound registered an inhibition at 4 µg/mL in the data set with Staphylococcus aureus [28] of 100%. The compound also registered an inhibition at 8 µg/mL in the data set with Escherichia coli [29] of 100%. In the data set on Escherichia coli [30], this compound gave an inhibition at 16 µg/mL of 100%. The “inhibition (INH)” value in the data set with Staphylococcus aureus [33] was 100%.
For `Cc1onc(-c2ccccc2)c1C(=O)N[C@@H]1C(=O)N2[C@@H]1SC(C)(C)[C@@H]2C(=O)O` [OXACILLIN], in the data set on Staphylococcus aureus [35], the Ratio worked out at 8.
